What was measured:
Assay type in all cases: in vivo, mice
[1] = system: endometriotic lesions (experimental endometriosis); experiment: Growth of luminescent endometriotic lesions monitored weekly by IVIS bioluminescence imaging
Excerpt: Based on our previous study, an immune-compromised mouse model of experimental endometriosis was created by subcutaneous transplantation of human or mouse tissues to assess the anti-angiogenic effects and mechanisms of green tea catechin (Xu H, et al. Hum Reprod 2009; 24:608-18; Xu H, et al. Fertil Steril 2011; 96:1021-8).
(§1) In this study, endometrial tissues from eight-week-old female CMV-Luc mice (n=15) were acquired for transplantation into nonluminescent NOD-SCID mice (n=32). The mouse endometrium was obtained during the proliferating estrous stage, and biopsies 2 mm in diameter were obtained with a sterile dermal biopsy punch (Miltex, NY). The biopsies were immediately washed in prewarmed, phenol-red-free DMEM/F-12 medium (Sigma) to remove residual blood and mucus, and the samples were maintained in serum-free DMEM/F-12 medium before transplantation (Bruner-Tran K L, et al. J Clin Endocrinol Metab 2009; 94:2489-94). Cultured endometrial biopsies were randomly allocated for transplantation.
(§2) Five mouse endometrial biopsies per treatment group were implanted into a single subcutaneous pocket created is the abdominal wall of the mice along the ventral midline immediately below the umbilicus. All of the surgical procedures were performed under general anesthesia with isoflurane (Baxter, IL), and the mice were monitored until they fully recovered.
Development and angiogenesis of the experimental endometriosis were monitored using various in vivo imaging systems. During the intervention, growth of the endometriotic lesions (n=8 per group) was monitored each week by measuring the bioluminescence of the subcutaneous luciferase-positive implants using a non-invasive IVIS 200 live animal imaging system (Xenogen) as previously described (Song C, et al. Hum Gene Ther, 2011; 22:439-49). A total of 150 mg/kg of luciferin was injected intraperitoneally […] 10 mins prior to imaging. An image from each animal was captured at bin size 4 in triplicate, and the bioluminescence signal intensities were averaged for comparison.

[2] = system: endometriotic lesions (experimental endometriosis); experiment: Lesion size, weight and histology at end of intervention; settings: after 4 weeks i.p. once per day
Excerpt: as §1, §2
At the end of intervention, size of the endometriotic lesions was determined as the longest length and perpendicular width according to a venire caliper and was calculated as 0.52×width^2×length in mm^3. The endometrial implants, together with subcutaneous and muscle layers, were removed from the abdomen wall for detailed histological examination and specific staining analysis.
(§3) Paraffin sections (n=4 per group) were prepared for standard hematoxylin and eosin (H&E) staining, angiogenesis immunostaining and TUNEL staining as previously described (Xu H, et al. Hum Reprod 2009; 24:608-18.). Immunohistochemistry staining of in situ angiogenesis was performed by the immunoperoxidase method using a MACH 3 HRP Polymer Kit (Biocare Medical, Concord), and counterstained using methyl green or blue solution.

[3] = system: microvessels in the endometriotic lesions; experiment: Angiogenesis of endometriotic lesions by Cellvizio, microCT and CD31/αSMA immunostaining; settings: after 4 weeks
Experimental: (§4) At the end of intervention, functional angiogenesis of the endometriotic lesions (n=8 per group) was monitored by measuring the flow of fluorescence dye in the new microvessels developed in the implants using a Cellvizio® LAB LSU-488 system with a ProFlex Microprobe S1500 (Mauna Kea Technologies, Paris) as previously described (Xu H, et al. Fertil Steril 2011; 96:1021-8.). A total of 10 mg/ml of FITC-Dextran was injected intravenously into each mouse prior to imaging. Total vessel length (μm) and area (μm^2) and functional capillary length (μm^−1) and area density were measured using Cellvizio® LAB Vessel Detection software, and averaged from 4 perpendicular regions of the lesions in replicates. At the same time, apoptotic cells in the lesions were captured by Cellvizio-LAB 488 with a ProFlex MiniO/100 microprobe using Cellvizio® LAB I/C Viewer software (Mauna Kea Technologies). A total of 10 μl of 10 μM YO-PRO®-1 iodide in DSMO was injected into the lesion area.
After live animal imaging, structural angiogenesis in the endometriotic lesions (n=4 per group) was further examined by detecting the Microfil in the new microvessels developed in the implants using a VivaCT 40 μCT system (Scanco Medical, Switzerland) as previously described (Sun M H, et al. J Orthop Res. 2012; 30:137-43.). The mice were sacrificed by cervical dislocation and where immediately perfused with 4% paraformaldehyde and Microfil MV-120 Blue. Three-dimensional microvessel architecture was constructed, and absolute and relative Microfil-filled microvessel volumes were determined using the built-in software.
as §3
Antibodies against mouse CD31 and alpha-smooth muscle actin (αSMA) (Abcam Inc., MA) were used to double fluorescence stain the microvessels developed in the endometriotic lesions, and CD34 (Abeam Inc.) was used to stain the microvessels in the ovaries and uterus. The samples without primary antibodies served as negative controls. The total number of positively stained new and old microvessels in the lesions was counted, respectively. The mean microvessel numbers and sizes were calculated from 5 separated sections from each animal within the treatment group and are presented as numbers per lesion and μm^2 per lesion, respectively.

[4] = system: apoptotic cells in the endometriotic lesions; experiment: Apoptosis in endometriotic lesions by Cellvizio YO-PRO-1 imaging and TUNEL staining; settings: after 4 weeks
Experimental: as §4
The total number of apoptotic cells was counted and averaged from the 4 perpendicular regions of the lesions in replicates as described above. Both IVIS and Cellvizio imaging procedures were performed under general anesthesia with isoflurane (Baxter, Ill.), and the mice were observed until fully recovered.
TUNEL labeling for in situ apoptotic cells was performed using an ApopTag Peroxidase In Situ Apoptosis Detection Kit (Temecula, Calif.) according to the manufacturer's instructions. The total numbers of TUNEL-positive stained cells were counted. The mean numbers of apoptotic cells were calculated from 5 separated sections from each animal within the treatment group and are presented as numbers per lesion as above. […] Each section was evaluated by both examiners, who were blinded to the experimental groups and results.

[5] = Oxygen radical absorbance capacity (ORAC) in plasma and lesions
Excerpt: (§5) Pharmacokinetics of EGCG and pro-EGCG in the animals were studied by measuring the corresponding EGCG and pro-EGCG concentrations (EGCG in the EGCG group, pro-EGCG in the pro-EGCG group) in plasma during the intervention and also in lesions at the end of intervention. EGCG and pro-EGCG were quantified by analytical methods as previously described (Lam W H, et al. Bioorg Med Chem. 2004; 510:69-93; Chu K O, et al. J Chromat B 2004; 810:187-95; Chu K O, et al. Anal Chim Acta 2004; 510:69-76). Anti-oxidative and anti-angiogenesis capacities of the samples were also studied by measuring oxygen radical absorbance capacity (ORAC) using a modified phycoerythrin fluorescence decay assay as previously described (Wang C C, et al. Clin Chem 2004; 50:952-4), and vascular endothelial growth factor (VEGF) concentrations were measured using a commercial ELISA kit (Uscn Life Science Inc., TX) according to the manufacturer's manual. Blood samples (n=8 per group) were collected from the tail vein once per week, and plasma was prepared by immediate centrifugation. Implants without subcutaneous and muscle layers (n=4 per group) were removed from the abdominal wall, and the endometriotic lesions were frozen. All of the samples were kept in −80° C. prior to analysis.

[6] = system: vascular endothelial growth factor (VEGF); experiment: VEGF concentrations in plasma and lesions by ELISA
Excerpt: as §5

[7] = EGCG, pro-EGCG 50 mg/kg, vitamin E 20 mg/kg

vitamin E
lesion bioluminescence intensity compared with saline group ([1]; i.p. once per day, 4 weeks, EGCG, pro-EGCG 50 mg/kg, vitamin E 20 mg/kg): significantly lower than that of the saline group at the 3rd week
lesion growth (bioluminescence) at the 4th week compared with saline group ([1]; vitamin E 20 mg/kg i.p. once per day, 4th week): returned to normal growth, as in the saline group
lesion size compared to control group [2, 7]: did not significantly decrease
lesion weight compared to control group [2, 7]: did not significantly decrease
development and histology of the endometriotic lesions ([2]; microscopic examination): a large cyst-like endometrial gland structure was formed
functional capillary length, density and area in the lesions compared to saline group ([3]; Cellvizio, FITC-Dextran): but not vitamin E, significantly inhibited
total vessel length in the lesions compared to saline group ([3]; Cellvizio, FITC-Dextran): but not vitamin E, significantly inhibited
CD31-positively and αSMA-positively stained old microvessel numbers compared to saline group ([3]; immunostaining): but not vitamin E, significantly inhibited
vessel volume and density in the lesions compared to saline group ([3]; microCT, Microfil): but not vitamin E, significantly inhibited
total apoptotic cell numbers in the lesions compared to saline group [4]: but not vitamin E significantly increased
ORAC in endometriotic lesions compared to saline group ([5]; lesions after intervention): significantly increased
ORAC in plasma compared to saline group ([5]; plasma during intervention): significantly increased
VEGF concentrations in endometriotic lesions compared to saline group ([6]; lesions after intervention): not significantly different from the saline group
VEGF concentrations in plasma compared to saline group ([6]; plasma during intervention): not significantly different from the saline group
